Assay results reported in US20250228865A1, “COMPOUNDS FOR ENHANCING READ THROUGH OF GENES CONTAINING PREMATURE TERMINATION CODONS AND METHODS FOR MAKING AND USING THE SAME” (Sanofi US Services Inc., priority 2022, published 2025).

Assays:
CFTR R1162X = assay: Functional CFTR channel activity, TECC-24 electrophysiology, 16HBE cells (CFTR R1162X readthrough); format: cell-based, human
Protocol: 16HBE human bronchial epithelial cells were seeded onto Transwell 24-well filter inserts coated with human collagen type IV. Cells were seeded 7 days prior to functional testing at a density of 1.7×10^5 cells onto the “apical” chamber filter of the Transwell insert. Cells were grown as submerged cultures (200 μL apical/700 μL basolateral) in Minimal Essential Medium (MEM) containing 10% qualified Fetal Bovine Serum and 1% Penicillin/Streptomycin and incubated at 37° C. and 5% CO2. Growth media on cells was replenished with fresh media every 1-3 days prior to test agent treatment day. After 7 days in culture, the CFTR-mediated chloride (Cl^−) equivalent current (Ieq) of the 16HBE cells was recorded, which may typically form electrically tight epithelia with a transepithelial resistance (Rt) of 2000-6000 Ω·cm2 as described below. Forty-eight hours prior to electrophysiological measurements, fresh growth media containing the test agents was applied to both chambers separating filter bound epithelial monolayer.
On the day of electrophysiology studies, electrodes of a “Multi-(24-channel) transepithelial current clamp amplifier” (MTECC-24 (TECC-24 for short), EP Devices, Belgium) were soaked in an assay buffer (see below for composition) for at least 2 hours using 24-well Transwell plates without inserts. Cell culture media was replaced in the Transwell assay plates with assay buffer (see below) and the plates were mounted onto a custom-built automated robotic assay platform (Yamaha RCX240S controller) with heated plate holders set at 37° C. for 60 min. After equilibration, transepithelial potential difference (PD) and resistance (Rt) was monitoredat ˜5 min intervals using the TECC-24 transepithelial current clamp. Electrode potential differences were monitored for each pair of Ag/AgCl voltage electrodes by taking voltage measurements from a control (“blank”) plate with matching buffer solutions and 16HBE cells that were not treated with any test agent. PD values for each electrode pair were subtracted from the blank plate from that of the test plates at each time point. Ieq was calculated from the corrected PD values and Rt using Ohm's law. Ieq values were slope corrected to account for measurement drift over time using the equation: Slope corrected value=calculated Ieq−((time x slope)+y-intercept) with the slope and y-intercept calculated from the data points captured during the initial baseline period and following addition of the CFTR inhibitor.
The equivalent current (Ieq) traces associated with CFTR channel activation were plotted as baseline subtracted mean±standard deviation from 3-4 separate wells on the 24-well Transwell (n=3-4). There are 4 recording periods, with the first set of data points recorded baseline Ieq currents prior to sequential activation of available CFTR channels with forskolin (10 μM) and then in combination with potentiator VX-770/ivacaftor (1 μM). Recorded the last set of data points in the presence of CFTR inhibitor CFTRinh-172 (20 μM) to confirm that currents are mediated via activation of CFTR channels. The test agents and control/reference compounds were pre-diluted to 10-fold concentrations in assay buffer and added manually using a multi-channel pipette to both the basolateral and apical side of the membrane (test plates only). Employed CFTR-mediated changes in Ieq, (i.e. forskolin/VX-770 activated currents) to measure functional CFTR surface expression or treatment-related functional rescue of mutant CFTR.
The magnitude of test agent mediated enhancement of functional CFTR currents was calculated by comparing forskolin/VX-770 stimulated Ieq relative to baseline/CFTRinh-172 Ieq following 48 hour pretreatment with test agent(s) and normalizing to the forskolin/VX-770 stimulated Ieq determined following 48 hour pretreatment with a maximally effective concentration a reference control aminoglycoside agent (typically 110 μM G418). […]

[1] = system: recombinant human CFTR carrying the premature stop codon (PTC) mutation R1162X; assay: CFTR-PTC mutant translation readthrough, Nanoluc tagged CFTR luminescence (R1162X cell line); format: cell-based; details: for CFTR R1162X ACTIVITY Fold 10 μM G-418: fold over 10 μM G-418, in combination with G418; for EC50: in combination with G418, 16HBE cells, read-out: CFTR R1162X ACTIVITY EC50
Procedure, shortened: (§1)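 Readthrough is the 48 h compound-induced luminescence increase scaled to that of maximal G418 (125-250 μM). Compounds run from 50 μM final in 2-fold steps, ±10 μM G418, on 16HBE lines carrying Nanoluc-tagged CFTR G542X (extracellular loop 4 tag) or R1162X (C-terminal tag), with 3 μM VX-809 present.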

[2] = system: recombinant human CFTR carrying the premature stop codon (PTC) mutation G542X; assay: CFTR-PTC mutant translation readthrough, Nanoluc tagged CFTR luminescence (G542X cell line); format: cell-based; details: in combination with G418, G542X cell line; for CFTR G542X ACTIVITY Fold 10 μM G-418: fold over 10 μM G-418; for EC50: 16HBE cells
Procedure, shortened: as §1

[3] = RTM conc. —, eRF3 modulator (CC-90009) 1 uM, ELX-02 100 uM

Structure (SMILES)	EC50 [1] [µM]	EC50 [2] [µM]	Currents (% of 110 μM G418 (Max effect)) (CFTR R1162X; [3])	Currents (% of 110 μM G418 (Max effect)) (CFTR R1162X; RTM 5 uM, no eRF3 modulator, G418 10 uM)	Currents (% of 110 μM G418 (Max effect)) (CFTR R1162X; RTM 3 uM, no eRF3 modulator, ELX-02 100 uM)	CFTR R1162X ACTIVITY Fold 10 μM G-418 [1]	CFTR G542X ACTIVITY Fold 10 μM G-418 [2]
OCc1ncn(-c2ncc(OCc3c(Cl)cccc3C(F)(F)F)cn2)n1 [drawing 811]	–	–	77 % of 110 μM G418 (Max effect)	–	–	–	–
O=C1O[C@@H](CO)CN1c1ccc(OCc2c(Cl)cccc2Cl)cc1 [drawing 819]	–	–	–	81 % of 110 μM G418 (Max effect)	–	–	–
OCc1ncn(-c2ncc(OCc3c(Cl)cccc3C(F)(F)F)cn2)n1 [drawing 810]	–	–	–	–	102 % of 110 μM G418 (Max effect)	–	–
Cc1cccc(C(F)(F)F)c1COc1ccc(-c2nc(CO)n[nH]2)cc1 [drawing 805]	–	–	63 % of 110 μM G418 (Max effect)	–	–	–	–
CN(C)C(=O)N1CCN(c2ncc(OCc3c(Cl)cccc3Cl)cn2)CC1	< 1	< 1	–	–	–	A′ (A′ = ≥10X)	B′ (B′ = ≥5X to <10X)
O=C1OC(CO)CN1c1ccc(CCc2c(Cl)cccc2Cl)cc1 (centres unmarked) [3-[4-[2-(2,6-dichlorophenyl)ethyl]phenyl]-5-(hydroxymethyl)oxazolidin-2-one]	> 10	1 to 10	–	–	–	B′ (B′ = ≥5X to <10X)	C′ (C′ = <5X)
O=C1OC(CO)CN1c1cnc(OCc2c(Cl)cccc2Cl)cn1 (centres unmarked)	> 10	1 to 10	–	–	–	B′ (B′ = ≥5X to <10X)	B′ (B′ = ≥5X to <10X)
O=C1COC(CO)CN1c1ccc(OCc2c(Cl)cccc2C(F)(F)F)cn1 (centres unmarked)	1 to 10	1 to 10	–	–	–	A′ (A′ = ≥10X)	A′ (A′ = ≥10X)
O=C1OC(CO)CN1c1ccc(OCc2c(Cl)cccc2Cl)cn1 (centres unmarked) [3-[5-[(2,6-dichlorophenyl)methoxy]-2-pyridyl]-5-(hydroxymethyl)oxazolidin-2-one]	1 to 10	1 to 10	–	–	–	A′ (A′ = ≥10X)	A′ (A′ = ≥10X)
Cc1cccc(C(F)(F)F)c1COc1cnc(N2CCNC(=O)C2)nc1 [4-[5-[[2-methyl-6-(trifluoromethyl)phenyl]methoxy]pyrimidin-2-yl]piperazin-2-one]	< 1	< 1	–	–	–	A′ (A′ = ≥10X)	A′ (A′ = ≥10X)
O=C1OC(CO)CN1c1ccc(OCc2c(Cl)cccc2Cl)cc1 (centres unmarked) [3-[4-[(2,6-dichlorophenyl)methoxy]phenyl]-5-(hydroxymethyl)oxazolidin-2-one]	1 to 10	1 to 10	–	–	–	B′ (B′ = ≥5X to <10X)	B′ (B′ = ≥5X to <10X)
OCc1ncn(-c2ccc(OCc3c(Cl)cccc3OC(F)(F)F)cc2)n1	1 to 10	1 to 10	–	–	–	A′ (A′ = ≥10X)	A′ (A′ = ≥10X)
OCc1ncn(-c2ncc(OCc3c(Cl)cccc3Cl)cn2)n1	1 to 10	1 to 10	–	–	–	C′ (C′ = <5X)	C′ (C′ = <5X)

Now from value to compound, other results behind:

EC50 [1] [µM]	EC50 [2] [µM]	Structure (SMILES)	Currents (% of 110 μM G418 (Max effect)) (CFTR R1162X; [3])	Currents (% of 110 μM G418 (Max effect)) (CFTR R1162X; RTM 5 uM, no eRF3 modulator, G418 10 uM)	Currents (% of 110 μM G418 (Max effect)) (CFTR R1162X; RTM 3 uM, no eRF3 modulator, ELX-02 100 uM)	CFTR R1162X ACTIVITY Fold 10 μM G-418 [1]	CFTR G542X ACTIVITY Fold 10 μM G-418 [2]
1 to 10	< 1	OC1CCCN(c2ncc(OCc3c(Cl)cccc3Cl)cn2)C1 (centres unmarked) [1-[5-[(2,6-dichlorophenyl)methoxy]pyrimidin-2-yl]piperidin-3-ol]	–	–	–	A′ (A′ = ≥10X)	A′ (A′ = ≥10X)
< 1	1 to 10	O=C(O)c1ncn(-c2ccc(OCc3c(Cl)cccc3C(F)(F)F)cn2)n1 [1-[5-[[2-chloro-6-(trifluoromethyl)phenyl]methoxy]-2-pyridyl]	–	–	–	–	B′ (B′ = ≥5X to <10X)
< 1	< 1	Cc1cccc(C(F)(F)F)c1COc1ccc(-n2cc(CO)nn2)nc1	–	–	–	A′ (A′ = ≥10X)	A′ (A′ = ≥10X)
1 to 10	> 10	O=c1[nH]ncc2cc(OCc3c(Cl)cccc3Cl)ccc12 [6-[(2,6-dichlorophenyl)methoxy]-2H-phthalazin-1-one]	–	–	–	A′ (A′ = ≥10X)	B′ (B′ = ≥5X to <10X)
1 to 10	< 1	Clc1cccc(Cl)c1COc1cnc(N2CC3(CCCOC3)C2)nc1 [2-[5-[(2,6-dichlorophenyl)methoxy]pyrimidin-2-yl]-6-oxa-2-azaspiro[3.5]nonane]	–	–	–	A′ (A′ = ≥10X)	A′ (A′ = ≥10X)
> 10	1 to 10	NS(=O)(=O)N1CCN(c2ncc(OCc3c(Cl)cccc3Cl)cn2)CC1 [4-[5-[(2,6-dichlorophenyl)methoxy]pyrimidin-2-yl]piperazine-1-sulfonamide]	–	–	–	A′ (A′ = ≥10X)	A′ (A′ = ≥10X)
1 to 10	1 to 10	CS(=O)(=O)NCC1CN(c2ncc(OCc3c(Cl)cccc3Cl)cn2)CCO1 (centres unmarked)	–	–	–	B′ (B′ = ≥5X to <10X)	A′ (A′ = ≥10X)
1 to 10	< 1	OCc1ccn(-c2ncc(OCc3c(Cl)cccc3Cl)cn2)n1 [[1-[5-[(2,6-dichlorophenyl)methoxy]pyrimidin-2-yl]pyrazol-3-yl]methanol]	–	–	–	A′ (A′ = ≥10X)	A′ (A′ = ≥10X)
> 10	1 to 10	O=C1CNC(=O)N1c1ccc(OCc2c(Cl)cccc2C(F)(F)F)cn1	–	–	–	–	B′ (B′ = ≥5X to <10X)
1 to 10	1 to 10	NC(=O)N1C[C@@H]2CN(c3ncc(OCc4c(Cl)cccc4Cl)cn3)C[C@@H]2C1	–	–	–	B′ (B′ = ≥5X to <10X)	A′ (A′ = ≥10X)
< 1	< 1	FC(F)(F)c1cccc(Cl)c1COc1cnc(-n2cc(-c3ccccn3)nn2)nc1	–	–	–	A′ (A′ = ≥10X)	A′ (A′ = ≥10X)
1 to 10	< 1	Cc1cccc(C(F)(F)F)c1COc1ccc(N2C(=O)CN(C)C2=O)cc1	–	–	–	A′ (A′ = ≥10X)	A′ (A′ = ≥10X)
< 1	< 1	OCC1(F)CCN(c2ncc(OCc3c(Cl)cccc3Cl)cn2)CC1 [[1-[5-[(2,6-dichlorophenyl)methoxy]pyrimidin-2-yl]-4-fluoro-4-piperidyl]methanol]	–	–	–	A′ (A′ = ≥10X)	A′ (A′ = ≥10X)
1 to 10	1 to 10	NC(=O)C1CN(c2ncc(OCc3c(Cl)cccc3Cl)cn2)C1 [1-[5-[(2,6-dichlorophenyl)methoxy]pyrimidin-2-yl]azetidine-3-carboxamide]	–	–	–	A′ (A′ = ≥10X)	B′ (B′ = ≥5X to <10X)
1 to 10	1 to 10	O=C1O[C@H](CO)CN1c1ccc(OCc2c(Cl)cccc2Cl)cc1 [(5S)-3-[4-[(2,6-dichlorophenyl)methoxy]phenyl]-5-(hydroxymethyl)oxazolidin-2-one]	–	–	–	B′ (B′ = ≥5X to <10X)	B′ (B′ = ≥5X to <10X)
